Assays:
[1] = test system: intraperitoneal macrophage cells of a mouse; assay: Measurement of macrophage activity: nitrite ion concentration (NO release, Griess reagent); format: cell-based; settings: test compound 50 μM; for Nitrite Ion Concentration Relative Value: relative to TDCM = 1.0, 48 hours; for Nitrite Ion Concentration Actual Value: cultured 48 hours, mouse peritoneal macrophages, mean ± S.E.
Protocol: Macrophage activation indicates the condition wherein the adhesion to the tissue and the motility of the macrophages are improved, so that bacteria entering from outside or denatured self-components are phagocytized. Macrophage activity can be measured using the release of cytokine or active oxygen as an index. In Experimental Example 1 below, the macrophage activation ability was measured using the nitrite ion concentration as an index.
The present experiment was conducted with reference to the method described in Sakurai T., Kaise T., Matsubara C. Chem. Res. Toxicol. 1998, 11, 273-283. Specifically, ICR male mice (6 to 7 weeks old) were anesthetized, a phosphate buffer containing 0.05% EDTA was injected intraperitoneally, an intraperitoneal lavage was performed, and a peritoneal macrophage was aseptically recovered. After the cells were washed with an RPMI-1640 medium (containing 10% bovine fetal serum), the macrophage cells were inoculated so that there were 1×10^5 cells/100 μl in each well of the 96-well plate. After being pre-incubated for 2 hours, the test compound (50 μM) was added to the culture medium, and cultured for 48 hours. Afterwards, a Griess test reagent was added to the culture medium, which was allowed to stand for 10 minutes; the absorbency thereof was measured with a microplate reader (filter: 550/630 nm), after which the nitrite ion concentration (NO2^−) was determined from a calibration curve. The reproducibility of the above-described test was confirmed by 3 wells, the experiment was repeated at least three times using different mice, and the mean values ±S.E. were determined.

[2] = test system: Clostridium perfringens (Type A NTCT8237); format: in vivo, ICR mice; settings: emulsion solution 100 mg/mouse, 3 hours before C. perfringens 2.4×10^7 cells/mouse
rabbit neutrophil [3] = assay: Influence on rabbit neutrophil H2O2 production (H2DCFDA fluorescence); format: cell-based; settings: 2 hours at 37° C., rabbit neutrophils
Protocol: The neutrophils (1.0×10^5 cells/100 μl) were inoculated in a 96-well plate (Falcon).

rabbit neutrophil [4] = assay: Influence on the phagocytic action of neutrophils (opsonized ampicillin resistant E. coli, colony count); settings: neutrophils treated 1 hour, then opsonized E. coli 1 hour

Row | SMILES | Nitrite Ion Concentration Relative Value [1] | Nitrite Ion Concentration Actual Value [1] | The number surviving/Administered group After 2 hr [2] | The number surviving/Administered group After 6 hr [2] | The number surviving/Administered group After 12 hr [2] | The number surviving/Administered group After 24 hr [2] | The number surviving/Administered group after 48 hr [2] | H2O2 production (rabbit neutrophil [3]; 50 μM) | H2O2 production (rabbit neutrophil [3]; 100 μM) | The number of colonies (rabbit neutrophil [4]; 50 μM) | The number of colonies (rabbit neutrophil [4]; 100 μM)
1 | CCCCCCCCCCC(CCCCCCCCCC)C(=O)NCC1O[C@H](O[C@H]2OC(CNC(=O)C(CCCCCCCCCC)CCCCCCCCCC)[C@@H](O)C(O)C2O)C(O)C(O)[C@@H]1O (stereo partly drawn) [Ex. 1, 6,6′-bis-N-(2-decyldodecanoylamino)-6,6′-dideoxy-α,α′-trehalose] | 0.4 | 200 ± 133 nM | 4/4 | 4/4 | 4/4 | 4/4 | 4/4 | 0.33 ± 0.05 nmol/10^5 Cells | 0.38 ± 0.05 nmol/10^5 Cells | 250 ± 11 | 487 ± 20
2 | CCCCCCCCCCCC(CCCCCCCCCCC)C(=O)NCC1O[C@H](O[C@H]2OC(CNC(=O)C(CCCCCCCCCCC)CCCCCCCCCCC)[C@@H](O)C(O)C2O)C(O)C(O)[C@@H]1O (stereo partly drawn) [Ex. 2, 6,6′-bis-N-(2-undecyltridecanoylamino)-6,6′-dideoxy-α,α′-trehalose] | 3.9 | 1973 ± 973 nM | – | – | – | – | – | 0.25 ± 0.02 nmol/10^5 Cells | 0.26 ± 0.02 nmol/10^5 Cells | 89 ± 21 | 172 ± 13
3 | CCCCCCCCCCCCC(CCCCCCCCCCCC)C(=O)NCC1O[C@H](O[C@H]2OC(CNC(=O)C(CCCCCCCCCCCC)CCCCCCCCCCCC)[C@@H](O)C(O)C2O)C(O)C(O)[C@@H]1O (stereo partly drawn) [Ex. 3, 6,6′-bis-N-(2-dodecyltetradecanoylamino)-6,6′-dideoxy-α,α′-trehalose] | 2.4 | 1202 ± 647 nM | – | – | – | – | – | 0.18 ± 0.03 nmol/10^5 Cells | 0.20 ± 0.03 nmol/10^5 Cells | 58 ± 9 | 112 ± 15
4 | CCCCCCCCCCCCCC(CCCCCCCCCCCCC)C(=O)NCC1O[C@H](O[C@H]2OC(CNC(=O)C(CCCCCCCCCCCCC)CCCCCCCCCCCCC)[C@@H](O)C(O)C2O)C(O)C(O)[C@@H]1O (stereo partly drawn) [Ex. 4, 6,6′-bis-N-(2-tridecylpentadecanoylamino)-6,6′-dideoxy-α,α′-trehalose] | 7.6 | 3676 ± 385 nM | 4/4 | 4/4 | 4/4 | 4/4 | 4/4 | 0.15 ± 0.02 nmol/10^5 Cells | 0.18 ± 0.02 nmol/10^5 Cells | 200 ± 15 | 350 ± 30
5 | CCCCCCCCCCCCCCC(CCCCCCCCCCCCCC)C(=O)NCC1O[C@H](O[C@H]2OC(CNC(=O)C(CCCCCCCCCCCCCC)CCCCCCCCCCCCCC)[C@@H](O)C(O)C2O)C(O)C(O)[C@@H]1O (stereo partly drawn) [Ex. 5, 6,6′-bis-N-(2-tetradecylhexadecanoylamino)-6,6′-dideoxy-α,α′-trehalose] | 8.8 | 4419 ± 4250 nM | 4/4 | 4/4 | 4/4 | 4/4 | 4/4 | 0.26 ± 0.04 nmol/10^5 Cells | 0.29 ± 0.04 nmol/10^5 Cells | 250 ± 16 | 450 ± 31
6 | CCCCCCCCCCCCCCCC(CCCCCCCCCCCCCCC)C(=O)NCC1O[C@H](O[C@H]2OC(CNC(=O)C(CCCCCCCCCCCCCCC)CCCCCCCCCCCCCCC)[C@@H](O)C(O)C2O)C(O)C(O)[C@@H]1O (stereo partly drawn) [Ex. 6, 6,6′-bis-N-(2-pentadecylheptadecanoylamino)-6,6′-dideoxy-α,α′-trehalose] | 1.7 | 851 ± 608 nM | – | – | – | – | – | 0.11 ± 0.03 nmol/10^5 Cells | 0.16 ± 0.03 nmol/10^5 Cells | 120 ± 11 | 220 ± 12
7 | CCCCCCCCCCCCCCCCC(CCCCCCCCCCCCCCCC)C(=O)NCC1O[C@H](O[C@H]2OC(CNC(=O)C(CCCCCCCCCCCCCCCC)CCCCCCCCCCCCCCCC)[C@@H](O)C(O)C2O)C(O)C(O)[C@@H]1O (stereo partly drawn) [Ex. 7, 6,6′-bis-N-(2-hexadecyloctadecanoylamino)-6,6′-dideoxy-α,α′-trehalose] | 0.6 | 300 ± 229 nM | – | – | – | – | – | 0.10 ± 0.03 nmol/10^5 Cells | 0.15 ± 0.02 nmol/10^5 Cells | 110 ± 7 | 200 ± 8
8 | CCCCCCCCCCCCCCC[C@@H](O)[C@@H](CCCCCCCCCCCCCC)C(=O)OCC1O[C@H](O[C@H]2OC(COC(=O)[C@H](CCCCCCCCCCCCCC)[C@H](O)CCCCCCCCCCCCCCC)[C@@H](O)[C@H](O)C2O)C(O)[C@@H](O)[C@@H]1O (some centres unmarked) [TDCM, trehalose 6,6′-dicorynomycolate, reference compound] | 1.0 | 500 ± 271 nM | 4/4 | 4/4 | 4/4 | 4/4 | 4/4 | 0.18 ± 0.02 nmol/10^5 Cells | 0.21 ± 0.02 nmol/10^5 Cells | 50 ± 10 | 87 ± 10

— patent US20100093993A1 (priority 2007, published 2010)
